These results are taken from patent US9611262B2, “Substituted 2-azabicycles and their use as orexin receptor modulators” (JANSSEN PHARMACEUTICA NV, priority 2014, dated 2017).

The assay concerns the target human orexin 2 receptor (Homo sapiens (Human), UniProt O43614). The experiment in a line: Human orexin 2 receptor radioligand binding ([3H]-EMPA competition). The conditions noted are these: HEK293 stably expressing human orexin 2 receptor; 2 nM [3H]-EMPA; averages of 2-20 runs; read-out: hOX2 Ki. As to the method: The in vitro affinity of the compounds of the invention for the rat/human orexin 1 and human orexin 2 receptors was determined by competitive radioligand binding using [^3H](1-(5-(2-fluoro-phenyl)-2-methyl-thiazol-4-yl)-1-((S)-2-(5-phenyl-(1,3,4)oxadiazol-2-ylmethyl)-pyrrolidin-1-yl)-methanone) (Langmead et al., 2004) and [^3H]EMPA (n-ethyl-2[96-methoxy-pyridin-3-yl)-(toluene-2-sulfonyl)-amino]-N-pyridin-3-ylmethyl acetamide), respectively (Langmead et al., 2004, British Journal of Pharmacology 141:340-346; Malherbe et al., 2004, British Journal of Pharmacology 156:1326-41).
Data are analyzed using pc-Sandy macro and graphed on Graphpad Prism 5. For analysis, each concentration point is averaged from triplicate values and the averaged values are plotted on Graphpad Prism. The IC50 was determined by applying the following equation (GraphPad Prism 5.0, San Diego) for one site competition where X=log (concentration) and Y=specific binding. Top denotes the total [^3H]— (1-(5-(2-fluoro-phenyl)-2-methyl-thiazol-4-yl)-1-((S)-2-(5-phenyl-(1,3,4)oxadiazol-2-ylmethyl)-pyrrolidin-1-yl)-methanone) binding, bottom denotes the nonspecific [^3H]— (1-(5-(2-fluoro-phenyl)-2-methyl-thiazol-4-yl)-1-((S)-2-(5-phenyl-(1,3,4)oxadiazol-2-ylmethyl)-pyrrolidin-1-yl)-methanone) binding. Graphpad Prism calculates Ki value from IC50 and the pre-determined Kd values for [^3H]— (1-(5-(2-fluoro-phenyl)-2-methyl-thiazol-4-yl)-1-((S)-2-(5-phenyl-(1,3,4)oxadiazol-2-ylmethyl)-pyrrolidin-1-yl)-methanone) and [^3H]-EMPA. The Ki for each compound is then uploaded into 3DX. Each run comprises individual compounds in triplicate. The data in Table 1 and Table 2 represent averages from between 2-20 runs
Human Orexin 2 Receptor Radioligand Binding Studies
HEK293 stably expressing human orexin 2 receptor (Genebank accession number NM_001526) were grown to confluency in DMEM (Hyclone, cat # SH30022), 10% FBS, 1× Pen/Strep, 1× NaPyruvate, 10 mM HEPES, 600 μg/ml G418 media on 150 cm^2 tissue culture plates, washed with 5 mM EDTA in PBS (HyClone Dulbecco's Phosphate Buffered Saline 1× with Calcium and Magnesium, Cat # SH30264.01, hereafter referred to simply as PBS) and scraped into 50 ml tubes. After centrifugation (2K×G, 5 min at 4° C.), the supernatant was aspirated and the pellets frozen and stored at −80° C. Cells were resuspended in PBS in the presence of 1 tablet of protease inhibitor cocktail (Roche, Cat. #11836145001) per 50 mL. […] Compounds were solubilized in 100% DMSO (Acros Organics, Cat. #61042-1000) and tested over a range of 7 concentration (from 0.1 nM to 10 μM). The final concentration of DMSO in the reactions is equal to or less than 0.1%. Total and nonspecific binding was determined in the absence and presence of 10 μM almorexant. The total volume of each reaction is 200 μL (20 μL of diluted compounds, 80 μL of [^3H]-EMPA diluted in PBS and 100 μL of the cell suspension). Reactions were run for 60 min at room temperature and terminated by filtration through GF/C filter plates (PerkinElmer, Cat. #6005174) presoaked in 0.3% polyethylenimine using the cell harvester (PerkinElmer Filtermate). The plates were washed 3 times by aspirating 30 ml PBS through the plates. Plates were dried in 55° C. oven for 60 min, scintillation fluid was added, and the radioactivity was counted on a Topcount (Packard).

human orexin 2 receptor, sequence (O43614 whole entry): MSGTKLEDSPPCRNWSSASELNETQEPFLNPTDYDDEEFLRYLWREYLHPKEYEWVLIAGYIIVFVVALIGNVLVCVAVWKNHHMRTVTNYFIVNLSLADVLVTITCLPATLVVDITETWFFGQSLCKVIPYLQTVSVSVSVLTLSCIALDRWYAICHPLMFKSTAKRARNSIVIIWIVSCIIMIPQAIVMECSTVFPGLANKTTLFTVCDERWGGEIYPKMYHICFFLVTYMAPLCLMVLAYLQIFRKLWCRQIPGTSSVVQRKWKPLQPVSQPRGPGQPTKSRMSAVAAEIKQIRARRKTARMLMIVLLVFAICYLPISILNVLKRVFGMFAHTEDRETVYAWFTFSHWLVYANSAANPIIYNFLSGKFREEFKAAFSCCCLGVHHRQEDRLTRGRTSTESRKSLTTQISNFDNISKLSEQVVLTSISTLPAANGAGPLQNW

With `Cc1ccc(-n2nccn2)c(C(=O)N2C(C)C3CC(Nc4cnc(C(F)(F)F)cn4)C2C3)n1` (single isomer, unassigned) [Example 6A, (6-methyl-3-(2H-1,2,3-triazol-2-yl)pyridin-2-yl)((1R*,3R*,4R*,6S*)-3-methyl-6-((5-(trifluoromethyl)pyrazin-2-yl)amino)-2-azabicyclo[2.2.1]heptan-2-yl)methanone], the Ki (in general, the equilibrium dissociation constant of an inhibitor or competing ligand from its target) is more than 10000 nM. Regarding `Cc1cnc(C(=O)N2C(C)C3CC(Oc4ccc(C(F)(F)F)cn4)C2C3)c(-n2nccn2)c1` (racemic) [Example 11, (R/S)-(5-methyl-3-(2H-1,2,3-triazol-2-yl)pyridin-2-yl)(3-methyl-6-((5-(trifluoromethyl)pyridin-2-yl)oxy)-2-azabicyclo[2.2.1]heptan-2-yl)methanone], the inhibition constant Ki stood at 2100 nM. `Cc1ccc(-n2nccn2)c(C(=O)N2C(C)C3CC(Nc4cnc(C(F)(F)F)cn4)C2C3)n1` (single isomer, unassigned) [Example 69, (R/S)-(6-methyl-3-(2H-1,2,3-triazol-2-yl)pyridin-2-yl)(3-methyl-6-((5-(trifluoromethyl)pyrazin-2-yl)amino)-2-azabicyclo[2.2.1]heptan-2-yl)methanone]: the Ki was determined as 345 nM. On to `CC1C2CC(Nc3cnc(C(F)(F)F)cn3)C(C2)N1C(=O)c1ccccc1-n1nccn1` (single isomer, unassigned) [Example 5A, (2-(2H-1,2,3-triazol-2-yl)phenyl)((1R*,3R*,4R*,6S*)-3-methyl-6-((5-(trifluoromethyl)pyrazin-2-yl)amino)-2-azabicyclo[2.2.1]heptan-2-yl)methanone], for which the Ki is more than 10000 nM. Next, `CC1C2CC(Nc3cnc(C(F)(F)F)cn3)C(C2)N1C(=O)c1ccccc1-n1nccn1` (single isomer, unassigned) [Example 5B, (2-(2H-1,2,3-triazol-2-yl)phenyl)((1S*,3S*,4S*,6R*)-3-methyl-6-((5-(trifluoromethyl)pyrazin-2-yl)amino)-2-azabicyclo[2.2.1]heptan-2-yl)methanone]: 146 nM; `C[C@@H]1[C@H]2C[C@@H](Nc3ccc(C(F)(F)F)cn3)[C@H](C2)N1C(=O)c1ncccc1-n1nccn1` (relative stereo) [Example 64, (3-(2H-1,2,3-triazol-2-yl)pyridin-2-yl)((1S*,3R*,4S*,6R*)-3-methyl-6-((5-(trifluoromethyl)pyridin-2-yl)amino)-2-azabicyclo[2.2.1]heptan-2-yl)methanone]: 324 nM. As for `C[C@@H]1[C@H]2C[C@@H](Oc3cnc4cc(F)c(F)cc4n3)[C@H](C2)N1C(=O)c1cccc(F)c1-n1nccn1` (relative stereo) [Example 190, ((1S*,3R*,4R*,6R*)-6-((6,7-difluoroquinoxalin-2-yl)oxy)-3-methyl-2-azabicyclo[2.2.1]heptan-2-yl)(3-fluoro-2-(2H-1,2,3-triazol-2-yl)phenyl)methanone], the Ki was determined as 123 nM.

`CCOc1ccc(C)nc1C(=O)N1C(C)C2CC(Oc3ccc(C(F)(F)F)cn3)C1C2` (racemic) [Example 13, (R/S)-(3-ethoxy-6-methylpyridin-2-yl)(3-methyl-6-((5-(trifluoromethyl)pyridin-2-yl)oxy)-2-azabicyclo[2.2.1]heptan-2-yl)methanone]: the Ki came out at 1600 nM. Turning to `CC1C2CC(Oc3ccc(C(F)(F)F)cn3)C(C2)N1C(=O)c1ccc(F)cc1-c1ncccn1` (single isomer, unassigned) [Example 17A, (4-fluoro-2-(pyrimidin-2-yl)phenyl)((1R*,3S*,4S*,6S*)-3-methyl-6-((5-(trifluoromethyl)pyridin-2-yl)oxy)-2-azabicyclo[2.2.1]heptan-2-yl)methanone], the Ki is more than 10000 nM.

For `Cc1ccc(-n2nccn2)c(C(=O)N2C(CF)C3CC(Oc4ccc(C(F)(F)F)cn4)C2C3)n1` (racemic) [Example 70], the inhibition constant (Ki) is 2000 nM.
